The subject of assay [1] is Dendra2-LC3 HEK cells. As to the kind of experiment: Optical pulse labeling: time-dependent decay of photoconverted (red, RFP/TRITC) Dendra2-LC3 as measure of autophagic flux. The settings on record: for Hit class in screen of Enzo Autophagy compound library (9H RFP/0H RFP): 10 uM, 9 hours after drug addition; for Phase II result, Dendra2-LC3 degradation kinetics: in comparison to DMSO. Details: key to Hit class in screen of Enzo Autophagy compound library (9H RFP/0H RFP): enhancer: [Sample9H RFP/OH RFP]<[DMSO9H RFP/OH RFP−3SDDMSO]; inhibitor: [Sample9H RFP/OH RFP]>[DMSO9H RFP/OH RFP 3SDDMSO]. Type of assay: cell-based, human. The protocol: FIGS. 8A-E. Time dependent decay of Dendra2-LC3 as an assay of autophagic flux. (FIG. 8A) Dendra2-LC3 reporter cells were imaged prior to photoconversion to measure background TRITC intensity. Immediately following photoconversion with a 5 second pulse of […] light, cells were treated with DMSO, 1 uM Torin1, or 10 nM Bafilomycin-A1 and then were subsequently imaged at the indicated time points. Images are psuedocolored to better highlight intensity differences. (FIGS. 8B-E) Time dependent changes in photoconverted Dendra2-LC3 fluorescence in the TRITC (FIGS. 8B, D) and GFP (FIGS. 8C, E) channels. Gray boxes represent the pre and post-photoconversion time points. TRITC intensity values are normalized, setting the background intensity prior to conversion to 0 and the post-conversion value to 1. GFP values are normalized to the pre-conversion intensity. Error bars represent the SEM from three replicate experiments. […] (FIG. 8C) Following photoconversion there is a 40% drop in GFP intensity. As new Dendra2-LC3 is synthesized, GFP levels return to pre-photoconversion levels over the span of 13.5 hours. […] Cells were transfected with 20 nM ATG5 siRNA two days prior to imaging.
FIG. 9A-C. Evaluating the efficacy of known autophagy modulators. (FIG. 9A) An unbiased screen of the Enzo Autophagy compound library identified several known autophagy compounds as hits providing construct validity to the assay. Rapamycin, NVP-BEZ235 and AKT inhibitor X, were among the compounds appropriately identified as enhancers while Bafilomycin registered as an inhibitor. […] Cells were imaged in RFP to measure background fluorescence, then photoconverted with a 4 second DAPI exposure and immediately imaged again to establish the postconversion intensity. Drugs from the Enzo Autophagy library were added at a concentration of 10 uM via a robotic liquid handler. 9 hours later the cells were imaged again in order to assess the efficacy of the drugs. Hits were defined as follows: enhancer: [Sample9H RFP/OH RFP]<[DMSO9H RFP/OH RFP−3SDDMSO], inhibitor: [Sample9H RFP/OH RFP]>[DMSO9H RFP/OH RFP 3SDDMSO]. […] Imaging of the compound library was repeated in GFP. Intensity values are reported 15 hours after drug treatment. (FIG. 9C) The reduction in Dendra2-LC3 half-life observed upon treatment of autophagic flux enhancers is attenuated with partial knockdown of ATG5. Cells were transfected with 20 nM ATG5 siRNA 2 days prior to imaging. Error bars represent SEM from three replicate experiments.
Experiments were conducted during development of embodiments herein to develop a sensitive method—optical pulse labeling (OPL)—that takes advantage of the photoconvertible fluorescent protein Dendra2 for estimations of autophagic flux in cellulo (Refs 14, 34; herein incorporated by reference in their entireties) (FIG. 1b). […] Dendra2 was fused to LC3, a specific marker of autophagosomes and itself an autophagy substrate (Refs. 27, 31; herein incorporated by reference in their entireties). Following photoconversion, the time-dependent reduction in red LC3-Dendra2 (FIG. 1c) is used to calculate protein half-life, representing an estimate of autophagy flux for individual cells (Refs. 14, 34; herein incorporated by reference in their entireties) Furthermore, because LC3 is degraded as autophagosomes mature, the return to steady-state levels of green Dendra2-LC3 after photoconversion (FIG. 1d) reflects activity within the pathway as a whole. The assay is noninvasive, permitting longitudinal analyses of autophagy kinetics in living cells, and amenable to HTS.
For these studies the potent mTOR inhibitor torin1 (Ref. 36; herein incorporated by reference in its entirety) was selected as a positive control for autophagy induction, and the vacuolar ATPase inhibitor bafilomycin-A1 (Ref. 37; herein incorporated by reference in its entirety) as a positive control for autophagy inhibition. In each case, DMSO served as a vehicle (negative) control. […]

In assay [2] the test system is Dendra2-LC3 HEK cells. Briefly: Native (green, GFP) Dendra2-LC3 intensity and puncta, phase I primary screen readout (T15/T0). The settings on record: for Phase I result, normalized GFP intensity (T15/T0): 15 h. Type of assay: cell-based, human. An excerpt:
Conventional methods for estimating autophagy flux rely upon the assessment of LC3 or other autophagy substrates by Western blotting or immunocytochemistry (Ref. 27; herein incorporated by reference in its entirety); by their very nature, these techniques are static and limited to dead cells. Fluorescence-based methods that use tagged substrates allow visualization of autophagy within living cells, but typically require the overexpression of autophagy target proteins that may disrupt the very process they are intended to measure. To assess autophagy in human cells without compromising or interfering with the pathway, experiments were conducted during development of embodiments herein utilizing CRISPR/Cas9 genome editing (Refs. 29-30; herein incorporated by reference in their entireties) to insert the Dendra2 open reading frame into the MAP1LC3B locus (encoding LC3) of HEK cells (FIG. 2a). A mutated, nickase version of Cas9 (Cas9n) was used that is incapable of making double-stranded DNA breaks, thereby minimizing the risk of non-homologous end joining and unwanted insertions or deletions (Refs. 29, 35; herein incorporated by reference in their entireties). Two separate single guide RNAs (sgRNAs) were designed that recognize sequences just upstream and downstream of the MAP1LC3B start codon, and a homology directed repair (HDR) vector encoding the Dendra2 open reading frame flanked by 400 bp of homologous sequence surrounding the MAP1LC3B start codon (FIG. 2a). Following expression of the sgRNAs, Cas9n and the HDR in HEK cells, colonies were selected based upon green fluorescence and passaged to homogeneity (FIG. 2b). The insertion site was confirmed by DNA sequencing, PCR, and immunocytochemistry using antibodies that recognize LC3. Providing further validation of the insertion, transfection with siRNA directed against the MAP1LC3B locus elicited a significant reduction in Dendra2-LC3 protein levels as measured by western blotting and native GFP fluorescence (FIG. 2c, d). In untreated cells, Dendra2-LC3 fluorescence appears diffuse, as expected (FIG. 3a). […] Second, autophagy induction in these cells is accompanied not only by the formation of puncta, but also by relative decreases in diffuse Dendra2-LC3 fluorescence, as indicated by the model in FIG. 1.
For these studies the potent mTOR inhibitor torin1 (Ref. 36; herein incorporated by reference in its entirety) was selected as a positive control for autophagy induction, and the vacuolar ATPase inhibitor bafilomycin-A1 (Ref. 37; herein incorporated by reference in its entirety) as a positive control for autophagy inhibition. In each case, DMSO served as a vehicle (negative) control. Dendra2-LC3 was photoconverted immediately prior to drug application, and the fluorescence intensity in the green (GFP) and red (RFP) channels was measured at regular intervals for 15 h.
The Z′ value for the effect of torin1 on the normalized GFP intensity, calculated as a ratio of GFP intensity at 15 h to that at 0 h (T15/T0), was 0.63 when the assay was conducted in a 96-well format in our laboratory, and 0.56 when conducted in a 384-well format at the Center for Chemical Genomics (CCG, FIG. 3e), indicative of a robust screening platform (Ref. 38; herein incorporated by reference in its entirety). […] The false negative rate was near zero, ensuring a highly sensitive assay.
The possibility that cell death and toxicity mimics the reduction in GFP intensity that would otherwise denote autophagy induction was also addressed. To avoid confounding from toxicity, the area occupied by cells in each image is calculated using ImageJ software and used as a proxy for cell number; since all wells received the same number of cells, >25% reductions in the area occupied by cells at the end of the experiment indicates toxicity. The formation of Dendra2-LC3 puncta in each condition is scored simultaneously using the ‘analyze particles’ function in ImageJ. […]

Assay [3] deals with Tandem reporter (RFP-GFP-LC3) HeLa cells. Briefly: Tandem reporter (RFP-GFP-LC3) assay, % of RFP puncta that are GFP positive. To be noted: imaged after 12 hours. Type of assay: cell-based. As to the method:
FIG. 13A-E. Validation of novel autophagy inhibitors with an independent measure of autophagic flux. (FIG. 13A) Tandem reporter (RFP-GFP-LC3) HeLa cells treated with the indicated compounds and imaged after 12 hours in RFP (middle panels) GFP (bottom panels). […] Concentrations used correspond to the lowest dose resulting in the maximum degree of colocalization between GFP and RFP puncta as calculated in (B). These are: 3 nM Bafilomycin, 1 uM Quinacrine, 50 uM 245536, and 100 uM of 254522, 45808, 234794, and 237373. (Scale bar: 50 μm) (FIG. 13B) The percentage of RFP positive puncta that are also GFP positive in tandem reporter HeLa cells was analyzed using Cell Profiler. First GFP (1a) and RFP (1b) images of the same field of cells are uploaded into Cell Profiler. Using the GFP images, nuclei are identified (2a-green outlines) and a nuclear mask (2b) is generated. […] Cellular boundries are identified (3a-purple outlines) and a cellular mask is created. […] Only puncta within this mask will be evaluated in subsequent steps. […] (FIG. 13D) Tandem reporter HeLa cells were imaged once prior to drug treatment and then treated with the lowest dose that produced the maximum response as calculated in (FIG. 13C) and imaged immediately after. […] Each point is calculated by taking the mean % of (GFP+/RFP+ puncta)/(RFP+) from 8 technical replicates. […]

For assay [4], the system named is primary rat cortical neurons overexpressing WT-TDP43-GFP. As to the kind of experiment: Survival of primary neurons overexpressing TDP43, automated fluorescence microscopy. Format: cell-based. To be noted: 25 nM.

As to `NC(=O)N1c2ccccc2C=Cc2ccccc21` [carbamazepine], in assay [1], the “Hit class in screen of Enzo Autophagy compound library (9H RFP/0H RFP)” value (“Hit class in screen” below) is given as “failure to markedly affect flux” and the “Phase II result, Dendra2-LC3 degradation kinetics” value (“Phase II result” for short) was “significantly slowed Dendra2-LC3 degradation”. Also, in assay [2] (Prestwick and Enzo collections), the “Phase I result, normalized GFP intensity (T15/T0)” value is on record as “significant increases in Dendra2-LC3 GFP fluorescence”.

For `C[C@@H]1C[C@@H]([C@H](O)CC2CC(=O)NC(=O)C2)C(=O)[C@@H](C)C1` [cycloheximide], in assay [1], the “Phase II result” value is given as “failed to affect Dendra2-LC3 degradation kinetics”. Besides, the “Phase I result, normalized GFP intensity (T15/T0)” value in assay [2] (Prestwick and Enzo collections) is given as “potential autophagy inducers”.

Consider `CCN(CC)CCCC(C)Nc1c2ccc(Cl)cc2nc2ccc(OC)cc12` (stereo not drawn) [Quinacrine], for which the “Lowest dose resulting in the maximum degree of colocalization between GFP and RFP puncta” value in assay [3] came to 1 µM.

As to `O=C(CCCCCN1C(=O)c2cccc3cccc(c23)C1=O)NO` [Scriptaid], the “Phase II result” value in assay [1] is recorded as “significantly slowed Dendra2-LC3 degradation”. The “Phase I result, normalized GFP intensity (T15/T0)” value in assay [2] (Prestwick and Enzo collections) is on record as “significant increases in Dendra2-LC3 GFP fluorescence”.

For the compound `CO[C@H]1C[C@@H]2CC[C@@H](C)[C@@](O)(O2)C(=O)C(=O)N2CCCC[C@H]2C(=O)O[C@H]([C@H](C)C[C@@H]2CC[C@@H](O)[C@H](OC)C2)CC(=O)[C@H](C)/C=C(\C)[C@@H](O)[C@@H](OC)C(=O)[C@H](C)C[C@H](C)/C=C/C=C/C=C/1C` [Rapamycin], in assay [1], the “Hit class in screen” value is on record as “enhancer”.

Turning to `OC[C@H]1O[C@H](O[C@H]2O[C@H](CO)[C@@H](O)[C@H](O)[C@H]2O)[C@H](O)[C@@H](O)[C@@H]1O` [trehalose], in assay [1], the “Hit class in screen” value is given as “failure to markedly affect flux”.

For `CCN(CC)CCCCN1c2ccccc2Oc2ccc(Cl)cc21` [AKT inhibitor X], the “Hit class in screen” value in assay [1] is recorded as “enhancer”. In assay [2] (Prestwick and Enzo collections), the “Phase I result, normalized GFP intensity (T15/T0)” value is “autophagy inducers”.

Consider `Cn1c(=O)n(-c2ccc(C(C)(C)C#N)cc2)c2c3cc(-c4cnc5ccccc5c4)ccc3ncc21` [NVP-BEZ235], for which the “Hit class in screen” value in assay [1] is recorded as “enhancer”. Further, the “Effect on TDP43 toxicity” value in assay [4] was “suppresses toxicity”. In addition, the “Hazard ratio, Cox proportional hazards analysis” value in assay [4] (p<0.05) was 0.89. Besides, the “Rank among autophagy inducers in phase I” value in assay [2] (Prestwick and Enzo collections) is given as “rank among the most potent inducers”.

Consider `OCCN1CCN(CCCN2c3ccccc3Sc3ccc(C(F)(F)F)cc32)CC1` [Fluphenazine], for which the “Formation of Dendra2-LC3 (LC3-positive) puncta” value in assay [2] (FPZ 0.5 μM, torin1 1 μM) is listed as “elicits the formation of LC3-positive puncta”. Also, in assay [2] (FPZ 0.5 μM, torin1 1 μM, vs DMSO), the “GFP intensity of native Dendra2-LC3” value was “reduces the steady-state GFP intensity”.

For the origin of these results see patent US10928381B2, “In vitro methods of monitoring autophagy in a human cell using a photoconvertable fluorescent protein linked biomarker” (The Regents of the University of Michigan, priority 2018, dated 2021).
